Laboratory results reported in US20060014987A1, “Synthesis of beta-elemene, intermediates thereto, analogues and uses thereof” (priority 2003, published 2006).
Converted amounts (≈) assume the structure as drawn.

Tests used:
[1] = tested on: G422 mice glioma (intracranial inoculation); assay: Intracranial inoculation, survival; format: in vivo; settings: positive control, i.p. 5 mg/kg once a day for 7 days
Method: Each experiment was repeated three times.
Intracranial inoculation: Scientists took aseptically G422 tumor from well-growing mice to prepare 2×10^7 cells/ml suspension by even protoplasm method. Mice were inoculated intracranially with 0.05 ml suspension. Treatment started the day after the inoculation. Animal survival time was recorded for 30 days.

human brain tumor, A-127 = assay: MTT assay, anti tumor activities of derivatives; format: cell-based
tumor cells = settings: in vitro; cited from earlier work
[2] = tested on: sensitive parental cell line CEM; assay: IC50 and drug accumulation in the sensitive line
[3] = 3H labeled, injected intravenously or taken orally; cited from earlier work
[4] = tested on: Human hepatic cancer BEL-7402 cell line; settings: after 6 weeks of induction with Elemene at 48.9 ug/ml; cited from earlier work
glioblastoma = settings: after treatment with this drug; cited from earlier work
liver cancer cell SMMC = settings: Elemene at 20 ug/ml; cited from earlier work
MDR cell line CEM/ADM = assay: MDR reversal, MTT method
[5] = tested on: MDR1 mRNA in CEM.ADM cells; assay: MDR1 mRNA by Rt-PCR
[6] = tested on: SHG-44 Human Brain Glioma (Subcutaneous Inoculation); settings: positive control, 30 mg/kg once a day for 7 days
SKOV3/CIS cells = settings: cited from earlier work
CEM/ADM cells = assay: Intracellular drug accumulation; settings: verapamil at 7.5 ug/ml
[7] = tested on: recurrent anaplastic astrocytoma; settings: cited from earlier work

Compound: COc1cc([C@@H]2c3cc4c(cc3[C@@H](O[C@@H]3O[C@@H]5CO[C@@H](c6cccs6)O[C@H]5[C@H](O)[C@H]3O)[C@H]3COC(=O)[C@H]23)OCO4)cc(OC)c1O [VM-26]
- LPR Experiment 1 [1]: 183.24%
- LPR Experiment 2 [1]: 168.75%
- LPR Experiment 3 [1]: 171.2%
- Mean Survival Time (Days) Experiment 1 [1]: 24.5 ± 6.0 days
- Mean Survival Time (Days) Experiment 2 [1]: 25.8 ± 5.1 days
- Mean Survival Time (Days) Experiment 3 [1]: 25.9 ± 4.7 days
- animals alive at the end / at the beginning of the treatment (n/m) [1]: VM-26 (4/10)

Compound: C=C[C@]1(C)CC[C@@H](C(C)(O)CO)C[C@H]1C(=C)C (single isomer, unassigned) [LR1, (R or S)-2-((1R,3S,4S)-3-Isopropenyl-4-methyl-4-vinyl-cyclohexyl)-propane-1,2-diol]
- IC50 (human brain tumor, A-127; 24 Hour): 176 µg/mL (≈ 739 µM)
- IC50 (human brain tumor, A-127; 48 Hour): 163 µg/mL (≈ 685 µM)
- IC50 (human brain tumor, A-127; 72 Hour): 133 µg/mL (≈ 558 µM)

Compound: C=C[C@]1(C)CC[C@@H](C(=C)C)C[C@H]1C(=C)C [beta-elemene, (−)-beta-elemene]
- IC50 for tumor cells (tumor cells): 20 to 50 µg/mL
- effect on IC50 values and drug accumulations [2]: no effect
- passage of the blood brain barrier (BBB) [3]: Radioactivity was detected in animals' brain
- expression of MDR1 mRNA or P-glycoprotein (P-gp) [4]: did not express MDR1 mRNA or P-glycoprotein (P-gp)
- longest survival time of a glioblastoma patient (glioblastoma): 62 months
- G0/G1 to S phase transition (liver cancer cell SMMC): blocked G0/G1 to S phase transition
- dose modifying factor (DMF) for DAU (MDR cell line CEM/ADM; beta-elemene at 3 ug/ml): 1.79
- dose modifying factor (DMF) for VCR (MDR cell line CEM/ADM; beta-elemene at 3 ug/ml): 1.60
- dose modifying factor (DMF) for ADM (MDR cell line CEM/ADM; beta-elemene at 3 ug/ml, IC50 without/with MDR modulator): 1.84
- quantity of MDR1 mRNA [5]: no quantity change

Compound: O=P1(N(CCCl)CCCl)NCCCO1 (stereo not shown) [CTX, cyclo-phosphate acylamine]
- TIR Experiment 1 [6]: 83.16%
- TIR Experiment 2 [6]: 88.54%
- Tumor Weight (g) Experiment 1 [6]: 0.33 ± 0.10 g
- Tumor Weight (g) Experiment 2 [6]: 0.22 ± 0.04 g
- Tumor Weight (g) Experiment 3 [6]: 0.23 ± 0.05 g

Compound: COc1ccc(CCN(C)CCCC(C#N)(c2ccc(OC)c(OC)c2)C(C)C)cc1OC (stereo not shown) [verapamil]
- enhancement of the sensitivity of SKOV3/CIS to doxorubicin (SKOV3/CIS cells): 260 fold
- DMF of ADM (MDR cell line CEM/ADM; verapamil at 7.5 ug/ml): 2.02
- DMF of DAU (MDR cell line CEM/ADM; verapamil at 7.5 ug/ml): 2.13
- DMF of VCR (MDR cell line CEM/ADM; verapamil at 7.5 ug/ml): 1.95
- intracellular accumulations of ADM, DAU and VCR versus negative controls (CEM/ADM cells): about 2 times

Compound: Cn1nnc2c(C(N)=O)ncn2c1=O [TEMODAR, temozolomide]
- CR+PR rate ([7]; brain tumor patients): 20%
- complete responses ([7]; human, in vivo): 9%
- overall tumor response rate ([7]; human, in vivo): 22%
- partial responses ([7]; human, in vivo): 13%
